Legend:
[1] = tested on: Arabidopsis thaliana third true leaf; assay: Growth (kinematic) analysis of the third leaf after transfer of seedlings to mannitol- or ACC-containing medium; type: in vivo; details: for reduction in leaf area: 72 h after transfer to mannitol (12 DAS)
Method: Arabidopsis seedlings were germinated and grown on nylon meshes overlaying control medium until 9 days after stratification (DAS), when the third true leaf is fully proliferating (Skirycz et al., 2010), and subsequently transferred to control or mannitol-containing medium (FIGS. 1A to 10). Kinematic analysis was performed, whereby leaves were harvested daily throughout development of leaf 3 (9-20 DAS) and based on drawings of the abaxial epidermis cell number, cell area, number of guard cells and cell division and cell expansion rates were calculated (De Veylder et al., 2001). […] Leaf and plant morphology were not altered by mannitol (FIG. 2C). Cell expansion was also affected by stress and the reduced final leaf area was a combination of fewer and smaller cells (FIG. 2D). The stomatal index, which represents the number of stomata as a fraction of the total number of cells, was reduced as well (FIG. 2E). To learn more about the mechanisms underlying the rapid reduction of cell division upon stress onset, we harvested leaf samples daily after transfer. As a measure of cellular differentiation, the ploidy distribution was examined by flow cytometry. […] In stressed leaves, 4C nuclei started to accumulate approximately one day earlier than in controls at the expense of 2C nuclei (FIG. 3A). Analogously, the number of 8C nuclei increased sharply at 14 DAS in stressed leaves, but only at 15 DAS in control samples (FIG. 3A). Again, transfer itself had no effect on ploidy levels (not shown). […] This observation was further investigated with a CYCB1;1:Dbox-GUS reporter line. Staining for CYCB1;1:Dbox-GUS activity visualizes cells at the G2-to-M transition, reflecting mitotic activity (Colón-Carmona et al., 1999). The most apparent differences were observed 48 h after transfer. […] While the relative size of the cell proliferation zone was similar in mannitol-treated leaves, the remaining proliferating cells were found in a dispersed pattern throughout this zone. […] Within a few days after transfer, division rates adapted to the new conditions and compensation effects were observed.
Seedlings of Arabidopsis thaliana (L.) Heyhn. ecotype Columbia-0 (Col-0) were grown in vitro in half-strength Murashige and Skoog medium (Murashige and Skoog, 1962), supplemented with 1% sucrose under a 16-h day (110 μmol m^−2 s^−1) and 8-h night regime. Plates were overlaid with nylon mesh (Prosep, Zaventem, Belgium) of 20 μm pore size to avoid that roots grew into the medium. Depending on the experiment, 32 or 64 seeds were equally distributed on a 150-mm diameter plate. Mutant plants were grown together with their wild-type controls on the same plate.
At 9 DAS, when the third leaf is fully proliferating, seedlings were transferred to plates containing control medium or medium supplemented with 25 mM mannitol (Sigma-Aldrich) or 5 μM ACC (Sigma-Aldrich) by gently lifting the nylon mesh with forceps. For the CDKA activity assay the transfer was done at 11 DAS; at this stage, the third leaf is still dividing and can be quickly harvested without the need for RNAlater solution (see below) that would inhibit CDKA activity. All transfers were performed 2-3 h into the day.
Growth analysis was performed on the third true leaf harvested at different time points after transfer. After clearing with 70% ethanol, leaves were mounted in lactic acid on microscopic slides. For each experiment, 8-12 leaves were photographed with a binocular, and epidermal cells (40-300) were drawn for four representative leaves with a DMLB microscope (Leica) fitted with a drawing tubus and a differential interference contrast objective. Photographs of leaves and drawings were used to measure leaf and cell area, respectively, with ImageJ v1.41o (NIH; http://rsb.info.nih.gov/ij/), from which the cell numbers were calculated. The stomatal index was defined as the percentage of stomata per all cells. […]

[2] = tested on: Arabidopsis thaliana third true leaf; assay: Ploidy analysis of leaf 3 by flow cytometry (endoreduplication onset); type: in vivo; details: transfer at 9 DAS to 25 mM mannitol or 5 μM ACC
Method: Arabidopsis seedlings were germinated and grown on nylon meshes overlaying control medium until 9 days after stratification (DAS), when the third true leaf is fully proliferating (Skirycz et al., 2010), and subsequently transferred to control or mannitol-containing medium (FIGS. 1A to 10). Kinematic analysis was performed, whereby leaves were harvested daily throughout development of leaf 3 (9-20 DAS) and based on drawings of the abaxial epidermis cell number, cell area, number of guard cells and cell division and cell expansion rates were calculated (De Veylder et al., 2001). […] Leaf and plant morphology were not altered by mannitol (FIG. 2C). Cell expansion was also affected by stress and the reduced final leaf area was a combination of fewer and smaller cells (FIG. 2D). The stomatal index, which represents the number of stomata as a fraction of the total number of cells, was reduced as well (FIG. 2E). To learn more about the mechanisms underlying the rapid reduction of cell division upon stress onset, we harvested leaf samples daily after transfer. […]
For flow cytometry analysis, nuclei were extracted by chopping 4-32 leaves with a razor blade in 1 ml of 45 mM MgCl2, 30 mM sodium citrate, 20 mM 3-(N-morpholino)propanesulfonic acid, pH 7, and 1% Triton X-100 (Galbraith et al., 1983). […] The nuclei were analyzed with a CyFlow flow cytometer with the FloMax Software (Partec).

[3] = tested on: ACC levels in shoots; assay: Quantification of ACC in shoots by CE-MS; type: in vivo, Arabidopsis thaliana
Method: To find out whether differential transcripts reflect changes in hormone levels, we determined concentrations of the ethylene precursor ACC in complete shoots of 9-day-old plants transferred to mannitol. Already 1 h after stress onset, ACC levels were 30% higher in stressed than in control samples, although this was not significant, and by 10 h, the increase was more than 2-fold and significant (FIG. 7B). At the time of analysis, the shoot samples were mainly composed of expanding cells, reflecting the overall importance of ethylene signaling for the response of growing tissues to stress.
Freeze-dried samples were dissolved in 500 μl of methanol, including two internal standard compounds (4 μM methionine sulfone used for compensation of the peak area after capillary electrophoresis-mass spectrometry (CE-MS) analysis and 0.2 μM D4-ACC for quantification of ACC. After addition of 500 μl of chloroform and 200 μl of water, the mixture was vortexed for 3 min and centrifuged at 20,400 g for 3 min at 4° C. The upper layer was evaporated for 30 min at 45° C. by a centrifugal concentrator and then separated into two layers. The upper layer (100-200 μl) was centrifugally filtered through a Millipore 5-kD cutoff filter at 9,100 g for 90 min. […] The final solution (10 μL) was used to quantify the contents of ACC by cation analysis using CE-MS. […]

[4] = transfer at 9 DAS to 25 mM mannitol or 5 μM ACC, leaf 3

With `OC[C@@H](O)[C@@H](O)[C@H](O)[C@H](O)CO` [mannitol] the “leaf and plant morphology” value ([1]; 25 mM mannitol) was “not altered”, the “reduction of leaf area” value ([1]; 25 mM mannitol in growth medium) was “approximately 50%” and the “reduction in leaf area” value ([1]; ein5.1 mutant) was roughly 20%. For the same compound, the “reduction in leaf area” value ([1]; etr1.3 mutant) was roughly 30%, the cell proliferation rates [1, 4] was “reduced proliferation rates” and the stomatal index [1, 4] was “reduced”. The “reduction in leaf area” value ([1]; wild type) was roughly 45%, the endoreduplication onset [2] was “faster onset of endoreduplication” and the “increase of ACC levels in stressed versus control shoots” value ([3]; 1 h after stress onset, not significant) was 30%. For the same compound, the “increase of ACC levels in stressed versus control shoots” value ([3]; 10 h after stress onset, significant) was “more than 2 fold”.

Reference: patent US20140130208A1, “METHODS AND MEANS TO PRODUCE ABIOTIC STRESS TOLERANT PLANTS” (VIB VZW, priority 2011, published 2014)
